Data: US8859284B2, “Delivery of nanoparticles to neurons” (The United States of America, as represented by the …, priority 2009, dated 2014)
Square brackets hold non-standard residues; d marks the D form. Ends that are not written are not given here. * marks the point of attachment. Farnesyl = CC(C)=CCC/C(C)=C/CC/C(C)=C/C*; Palmitoyl = CCCCCCCCCCCCCCCC(=O)*; Dapaa = not defined here; Dapdi = not defined here; Dab = NCC[C@H](N)C(=O)O; Dap = NC[C@H](N)C(=O)O; Kh = not defined here; bi = not defined here; Aib = CC(C)(N)C(=O)O

How the values were obtained:
[1] = system: COS-1 cells; test: Cellular uptake and endosomal escape of QD-peptide assemblies, fluorescence microscopy; assay type: cell-based, African green monkey; settings: for % Escape in cells with uptake: QD-peptide assemblies; for Overall uptake/escape: uptake: first word of the cell; for Overall uptake/escape: escape: second word of the cell; for intracellular distribution of QD-peptide assemblies: COS-1, 1 hr incubation, 24 hr culture
Experimental: Merged images were generated using Adobe PhotoShop.
The peptide assemblies were incubated with COS-1 cells for 1 hr, removed, and the cells were subsequently cultured for 24 hr prior to fixation. An AlexaFluor 647-transferrin (Tf) conjugate was included during the incubation to label the vesicles of the endocytic pathway. Cell nuclei were stained with DAPI.

[2] = system: HEK 293T/17 cells; test: Cellular delivery of QDs, intracellular fate by fluorescence microscopy; settings: for disruption of endosomes: with QD-CPP, 2-3 h, highest concentrations (500 mM sucrose or 500 μM chloroquine)
Experimental: Human embryonic kidney (HEK 293T/17) and African green monkey kidney (COS-1) cell lines (ATCC, Manassas, Va.) were cultured in complete growth medium (Dulbecco's Modified Eagle's Medium (DMEM; purchased from ATCC)) supplemented with 1% (v/v) antibiotic/antimycotic and 10% (v/v) heat inactivated fetal bovine serum (ATCC). Cells were cultured in T-25 flasks and incubated at 37° C. under 5% CO2 atmosphere and a subculture was performed every 3-4 days (see reference 13).
The QD delivery experiments were performed on adherent cells seeded into the wells of Lab-Tek 8-well chambered #1 borosilicate coverglass (Nalge Nunc, Rochester, N.Y.) coated with 2 μg/mL fibronectin. For electroporation and nucleofection, adherent cells were harvested by trypsinization prior to performing QD delivery to cells in suspension. Cells were then seeded to chambered coverglass wells and imaged after cell attachment. The endosomal marker AlexaFluor647-transferrin was included as indicated in the text. For imaging, cells were washed with phosphate buffered saline (PBS, 137 mM NaCl, 10 mM phosphate, 3 mM KCl, pH 7.4), fixed with 3.7% paraformaldehyde in PBS and nuclei were stained with DAPI (Sigma) unless otherwise indicated.
For electroporation, cells were harvested by trypsinization and recovered for 1 hour in complete growth medium, pelleted, and resuspended in PBS. 510 nm DHLA-PEG QDs (0.5 μM final concentration) were mixed with 1×10^4 cells to a final volume of 100 μL in PBS in a 0.2 mm electroporation cuvette. The cuvette was subjected to 100 V for a 20 ms pulse using a GenePulser XCell electroporator (Bio-Rad, Hercules, Calif.). Cells were resuspended in complete growth medium, seeded into fibronectin-coated 8-well chambered coverglass, fixed and imaged after 24 hrs. For nucleofection delivery, 1×10^6 cells were harvested and resuspended in 100 μL of NUCLEOFECTOR reagent (Amaxa, Gaithersburg, Md.). 510 nm DHLA-PEG QDs were included at a final concentration of 0.4 μM. The cell/QD/reagent mixture was pulsed in the NUCLEOFECTOR using a preset protocol adapted for each specific cell line (20, 21). Cells were cultured and imaged as described for electroporation.
The INFLUX cell-loading reagent mediates the intracellular release of materials internalized via pinocytic vesicles by delivering the materials to cells in a hypertonic medium followed by the transfer of the cells to a hypotonic medium to induce vesicle disruption (see reference 22). 510 nm DHLA-PEG QDs were diluted to a final concentration of 300-800 nM in the supplied hypertonic delivery media according to manufacturer's instructions and incubated on the cells for 30 min at 37° C. The hypertonic medium was exchanged for hypotonic medium (serum-free culture medium diluted by 40% with deionized water) and incubated on the cells for 3 min. The cells were then recovered in complete growth medium for 30 min and cultured for various lengths of time prior to washing and fixation for imaging.
520 nm QDs with a 1:1 mixed surface of DHLA:DHLA-PEG were incubated with LIPOFECTAMINE 2000 for 20 min in serum free medium at a ratio of 1 μL LIPOFECTAMINE 2000 per 1.5 pmol QD. The complexes, at a final QD concentration of 75 nM, were incubated with the cells for 4 hours, removed and replaced with complete growth medium. The cells were then cultured for 24-36 h prior to washing and fixation.
PEI was incubated with 520 nm mixed surface DHLA:DHLA-PEG QDs in serum free medium at a ratio of 10 μg PEI per 1 pmol QD for 15 min. […] The complexes were then diluted into serum free media to a final QD concentration of 75-100 nM, incubated with cells for 2 h and removed. Cells were then cultured in complete media for 24-36 h, washed and fixed.
A stock solution of 520 nm DHLA:DHLA-PEG QDs (1 μM in 0.1 M borate buffer, pH 8.9) was diluted to 0.5 μM in HEPES (4-(2-hydroxyethyl)-1-piperazineethanesulfonic acid, pH 8.2).

Molecule: WGDapa(P)9GG(H)6 (WG[Dap](Palmitoyl)PPPPPPPPPGGHHHHHH) [JB578]
- % Escape in cells with uptake ([1]; COS1 cells): 46%
- Overall uptake/escape: uptake ([1]; COS1 cells): Low
- Overall uptake/escape: escape ([1]; COS1 cells): moderate

Molecule: WdGDapdiVKIKK(P)9GG(H)6 [JB621]
- % Escape in cells with uptake ([1]; COS1 cells): 90%
- Overall uptake/escape: uptake ([1]; COS1 cells): Low
- Overall uptake/escape: escape ([1]; COS1 cells): high

Molecule: VKIKKWGDapa(P)9GG(H)6 (VKIKKWG[Dap](Palmitoyl)PPPPPPPPPGGHHHHHH) [JB862]
- % Escape in cells with uptake ([1]; COS1 cells): 9%
- Overall uptake/escape: uptake ([1]; COS1 cells): Low
- Overall uptake/escape: escape ([1]; COS1 cells): low

Molecule: WGDapaVKIKK(P)12GG(H)6 (WG[Dap](Palmitoyl)VKIKKPPPPPPPPPPPPGGHHHHHH) [JB865]
- % Escape in cells with uptake ([1]; COS1 cells): 68%
- Overall uptake/escape: uptake ([1]; COS1 cells): High
- Overall uptake/escape: escape ([1]; COS1 cells): moderate

Molecule: WGDapVRRRIRR(P)9GG(H)6 (WG[Dap]VRRRIRRPPPPPPPPPGGHHHHHH) [JB585]
- % Escape in cells with uptake ([1]; COS1 cells): 25%
- Overall uptake/escape: uptake ([1]; COS1 cells): Low
- Overall uptake/escape: escape ([1]; COS1 cells): low

Molecule: (H)6GG(P)9WGDapaVKIKK (HHHHHHGGPPPPPPPPPWG[Dap](Palmitoyl)VKIKK) [JB859]
- % Escape in cells with uptake ([1]; COS1 cells): 17%
- Overall uptake/escape: uptake ([1]; COS1 cells): Moderate
- Overall uptake/escape: escape ([1]; COS1 cells): low

Molecule: AcG(Pal)DapVKIKK P9GG H6 (Ac-G[Dap](Palmitoyl)VKIKKPPPPPPPPPGGHHHHHH) [Palm-1b]
- intracellular distribution of QD-peptide assemblies [1]: largely well dispersed throughout the cytoplasm

Molecule: AcG(Pal)DapVKIKKGLAPAAGG H6 (Ac-G[Dap](Palmitoyl)VKIKKGLAPAAGGHHHHHH) [Palm-3b]
- intracellular distribution of QD-peptide assemblies [1]: nearly entirely sequestered within endosomes

Molecule: WGDapaaVKIKK(P)9GG(H)6 (WG[Dapaa]VKIKKPPPPPPPPPGGHHHHHH; reading uncertain) [JB866]
- % Escape in cells with uptake ([1]; COS1 cells): 11%
- Overall uptake/escape: uptake ([1]; COS1 cells): Moderate
- Overall uptake/escape: escape ([1]; COS1 cells): low

Molecule: WGDabaVKIKK(P)9GG(H)6 (WG[Dab](Palmitoyl)VKIKKPPPPPPPPPGGHHHHHH) [JB858]
- % QD uptake (n), result in words ([1]; COS1 cells, cell continues in r20 'localized'): Membrane

Molecule: WGDapaVKIKK(P)9GGKb [JB728]
- % Escape in cells with uptake ([1]; COS1 cells): 93%
- Overall uptake/escape: uptake ([1]; COS1 cells): High
- Overall uptake/escape: escape ([1]; COS1 cells): high

Molecule: WGCgVKIKK(P)9GG(H)6 (WGC(Farnesyl)VKIKKPPPPPPPPPGGHHHHHH; not fully specified) [JB872]
- % Escape in cells with uptake ([1]; COS1 cells): 79%
- Overall uptake/escape: uptake ([1]; COS1 cells): High
- Overall uptake/escape: escape ([1]; COS1 cells): high

Molecule: OC[C@H]1O[C@@](CO)(O[C@H]2O[C@H](CO)[C@@H](O)[C@H](O)[C@H]2O)[C@@H](O)[C@@H]1O [sucrose]
- Toxicity [2]: significant cellular toxicity and morbidity
- disruption of endosomes [2]: efficiently disrupted the endosomes

Molecule: WGDapeVKIKK(P)9GG(H)6 [JB729]
- % Escape in cells with uptake ([1]; COS1 cells): 84%
- Overall uptake/escape: uptake ([1]; COS1 cells): High
- Overall uptake/escape: escape ([1]; COS1 cells): high

Molecule: WGDapaGDapaVKIKK(P)9GG(H)6 (WG[Dap](Palmitoyl)G[Dap](Palmitoyl)VKIKKPPPPPPPPPGGHHHHHH) [JB580]
- % Escape in cells with uptake ([1]; COS1 cells): 92%
- Overall uptake/escape: uptake ([1]; COS1 cells): Low
- Overall uptake/escape: escape ([1]; COS1 cells): high

Molecule: KETWWETWWTEWSQPKKKRKVSGAibAAAGG(H)6 (KETWWETWWTEWSQPKKKRKVSG[Aib]AAAGGHHHHHH) [JB719, Chariot peptide, reference compound]
- % Escape in cells with uptake ([1]; COS1 cells): 43%
- Overall uptake/escape: uptake ([1]; COS1 cells): Moderate
- Overall uptake/escape: escape ([1]; COS1 cells): moderate

Molecule: WGDapaRRRIRR(P)9GGK [JB588]
- % Escape in cells with uptake ([1]; COS1 cells): 85%
- Overall uptake/escape: uptake ([1]; COS1 cells): High
- Overall uptake/escape: escape ([1]; COS1 cells): high

Molecule: (H)6GG(P)9VKIKKDapaGW (HHHHHHGGPPPPPPPPPVKIKK[Dap](Palmitoyl)GW) [JB860]
- % Escape in cells with uptake ([1]; COS1 cells): 60%
- Overall uptake/escape: uptake ([1]; COS1 cells): Moderate
- Overall uptake/escape: escape ([1]; COS1 cells): moderate

Molecule: WGDapVKIKK(P)9GG(H)6 (WG[Dap]VKIKKPPPPPPPPPGGHHHHHH) [JB579]
- % Escape in cells with uptake ([1]; COS1 cells): 29%
- Overall uptake/escape: uptake ([1]; COS1 cells): Low
- Overall uptake/escape: escape ([1]; COS1 cells): low

Molecule: WGDapaVKIKK(P)4GG(H)6 (WG[Dap](Palmitoyl)VKIKKPPPPGGHHHHHH) [JB582]
- Overall uptake/escape: uptake ([1]; COS1 cells): None
- Overall uptake/escape: escape ([1]; COS1 cells): none

Molecule: O=C(O)CCCc1ccc2ccc3cccc4ccc1c2c34 [pyrenebutyrate]
- intracellular distribution of QDs ([2]; HEK 293T/17, endosomal marker AlexaFluor 647-transferrin): no cytosolic dispersal was observed

Molecule: AcG(Pal)DapVKIKKGLAAAAGG H6 (Ac-G[Dap](Palmitoyl)VKIKKGLAAAAGGHHHHHH) [Palm-2b]
- intracellular distribution of QD-peptide assemblies [1]: nearly entirely sequestered within endosomes

Molecule: KhGDapaVKIKK(P)9GG(H)6 ([Kh]G[Dap](Palmitoyl)VKIKKPPPPPPPPPGGHHHHHH; reading uncertain; also: N-terminal modifications) [JB867]
- QD/TAMRA colocalized (integrity) ([1]; COS1 cells, printed in the % QD uptake column): >90%

Molecule: WGCcVKIKK(P)9GG(H)6 [JB589]
- % Escape in cells with uptake ([1]; COS1 cells): 50%
- Overall uptake/escape: uptake ([1]; COS1 cells): Low
- Overall uptake/escape: escape ([1]; COS1 cells): moderate

Molecule: WGDapdiVKIKK(P)9GG(H)6 (WG[Dapdi]VKIKKPPPPPPPPPGGHHHHHH; reading uncertain) [JB641]
- % Escape in cells with uptake ([1]; COS1 cells): 88%
- Overall uptake/escape: uptake ([1]; COS1 cells): Moderate
- Overall uptake/escape: escape ([1]; COS1 cells): high

Molecule: biKWGSAibAAALGG(R)10 (bi-KWGS[Aib]AAALGGRRRRRRRRRR; reading uncertain) [JB722, Dye labeled cell penetrating peptide, reference compound]
- % Escape in cells with uptake ([1]; COS1 cells): 1%
- Overall uptake/escape: uptake ([1]; COS1 cells): Low
- Overall uptake/escape: escape ([1]; COS1 cells): low

Molecule: WGDapaVKIKK(P)15GG(H)6 (WG[Dap](Palmitoyl)VKIKKPPPPPPPPPPPPPPPGGHHHHHH) [JB864]
- % Escape in cells with uptake ([1]; COS1 cells): 85%
- Overall uptake/escape: uptake ([1]; COS1 cells): High
- Overall uptake/escape: escape ([1]; COS1 cells): high

Molecule: CCN(CC)CCCC(C)Nc1ccnc2cc(Cl)ccc12 (stereo not drawn) [chloroquine]
- Toxicity [2]: significant cellular toxicity and morbidity
- disruption of endosomes [2]: efficiently disrupted the endosomes

Molecule: WGDapVRL(P)3VRL(P)3VRL(P)3GG(H)6 (WG[Dap]VRLPPPVRLPPPVRLPPPGGHHHHHH) [JB868]
- % Escape in cells with uptake ([1]; COS1 cells): 18%
- Overall uptake/escape: uptake ([1]; COS1 cells): Moderate
- Overall uptake/escape: escape ([1]; COS1 cells): low

Molecule: WGDapaVRL(P)3VRL(P)3VRL(P)3GG(H)6 (WG[Dap](Palmitoyl)VRLPPPVRLPPPVRLPPPGGHHHHHH) [JB869]
- % Escape in cells with uptake ([1]; COS1 cells): 55%
- Overall uptake/escape: uptake ([1]; COS1 cells): High
- Overall uptake/escape: escape ([1]; COS1 cells): moderate

Molecule: WGDapaVRRRIRR(P)9GG(H)6 (WG[Dap](Palmitoyl)VRRRIRRPPPPPPPPPGGHHHHHH) [JB583]
- % Escape in cells with uptake ([1]; COS1 cells): 41%
- Overall uptake/escape: uptake ([1]; COS1 cells): Low
- Overall uptake/escape: escape ([1]; COS1 cells): moderate

Molecule: WGDapaVKIKK(Aib)9GG(H)6 (WG[Dap](Palmitoyl)VKIKK[Aib][Aib][Aib][Aib][Aib][Aib][Aib][Aib][Aib]GGHHHHHH) [JB747]
- % Escape in cells with uptake ([1]; COS1 cells): 58%
- Overall uptake/escape: uptake ([1]; COS1 cells): High
- Overall uptake/escape: escape ([1]; COS1 cells): moderate

Molecule: WGDapfVKIKK(P)9GG(H)6 [SI09160]
- % Escape in cells with uptake ([1]; COS1 cells): 96%
- Overall uptake/escape: uptake ([1]; COS1 cells): Moderate
- Overall uptake/escape: escape ([1]; COS1 cells): high
